Measurements: patent US11109593B2, “Isoxazolin-5-one derivative and herbicide containing same as active ingredient” (HOKKO CHEMICAL INDUSTRY CO., LTD., priority 2017, dated 2021)

Key:
Type in all cases: in vivo
Amaranthus viridis [1] = assay: Test Example 3: herbicidal effect test by treatment of dry field farming soil (one day after seeding); details: 120 g/10a active ingredient, evaluated 14 days after treatment
Procedure, shortened: (§1)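 Weeds were seeded into the upper soil layer of alluvial field soil and, one day afterwards, the soil surface was sprayed with water-diluted emulsion delivering 120 g active ingredient per 10 ares. Mean plant dry weight relative to untreated pots after 14 days gave the herbicidal rate, tested in duplicate.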

southern crabgrass [2] = assay: as above; details: 120 g/10a active ingredient, evaluated 14 days after treatment
Procedure, shortened: as §1

Echinochloa crus-galli [3] = assay: as above; details: 120 g/10a active ingredient, evaluated 14 days after treatment
Procedure, shortened: as §1

Chenopodium album [4] = assay: as above; details: 120 g/10a active ingredient, evaluated 14 days after treatment
Procedure, shortened: as §1

[5] = system: broad leaf weeds (Lindernia pyxidaria and Monochoria vaginalis); assay: Test Example 2: herbicidal effect test by treatment during growing period in paddy rice cultivation (seven days after seeding); details: 120 g/10a active ingredient, assessed 14 days after treatment, dry weight vs untreated area
Procedure, shortened: (§2)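 Sow 30 seeds per species (0–1 cm) into puddled, fertilized paddy soil; keep flooded ~3 cm in greenhouse. Day 7 after seeding: drop water-diluted emulsion, 120 g a.i./10 ares. Harvest 14 d post-treatment; compare dry weight with untreated pots (duplicate).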

Echinochloa crus-galli [6] = assay: as above; details: 120 g/10a active ingredient, assessed 14 days after treatment, dry weight vs untreated area
Procedure, shortened: as §2

Scirpus juncoides [7] = assay: as above; details: 120 g/10a active ingredient, assessed 14 days after treatment, dry weight vs untreated area
Procedure, shortened: as §2

Amaranthus viridis [8] = assay: Test Example 4: herbicidal effect test by treatment of leave and stem in dry field farming (seven days after seeding); details: 120 g/10a active ingredient; emulsion sprayed seven days after seeding; evaluated 14 days after treatment
Procedure, shortened: (§3)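 Duplicate pots were scored 14 days post-spray by dry weight, herbicidal rate = {1 − treated/untreated average dry weight} × 100. The water-diluted emulsion, equivalent to 120 g active ingredient per 10 ares in 100 L, was applied seven days after sowing 20 seeds each into the upper 1 cm of alluvial soil.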

southern crabgrass [9] = assay: as above; details: 120 g/10a active ingredient; emulsion sprayed seven days after seeding; evaluated 14 days after treatment
Procedure, shortened: as §3

Echinochloa crus-galli [10] = assay: as above; details: 120 g/10a active ingredient; emulsion sprayed seven days after seeding; evaluated 14 days after treatment
Procedure, shortened: as §3

Chenopodium album [11] = assay: as above; details: 120 g/10a active ingredient; emulsion sprayed seven days after seeding; evaluated 14 days after treatment
Procedure, shortened: as §3

[12] = system: broad leaf weeds (Lindernia pyxidaria and Monochoria vaginalis); assay: Test Example 1: herbicidal effect test by treatment of rice paddy soil (immediately after seeding); details: 120 g/10a active ingredient, dry weight vs untreated area, 14 days after treatment
Procedure, shortened: (§4)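 Applied at 120 g a.i./10 ares as diluted emulsion dropped into flooded (~3 cm) paddy soil pots right after sowing seeds 0–1 cm deep; greenhouse, two replicates. At day 14, dry weight of treated versus untreated plants gives % herbicidal rate.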

Echinochloa crus-galli [13] = assay: as above; details: 120 g/10a active ingredient, dry weight vs untreated area, 14 days after treatment
Procedure, shortened: as §4

Scirpus juncoides [14] = assay: as above; details: 120 g/10a active ingredient, dry weight vs untreated area, 14 days after treatment
Procedure, shortened: as §4

Row | SMILES | herbicidal rate, Amaranthus viridis (Amaranthus viridis [1]) | herbicidal rate, southern crabgrass (southern crabgrass [2]) | herbicidal rate, Echinochloa crus-galli (Echinochloa crus-galli [3]) | herbicidal rate, Chenopodium album (Chenopodium album [4]) | Herbicidal rate (%) Lindernia pyxidaria [5] | Herbicidal rate (%) Monochoria vaginalis [5] | Herbicidal rate (%) Echinochloa crus-galli (Echinochloa crus-galli [6]) | Herbicidal rate (%) Scirpus juncoides (Scirpus juncoides [7]) | herbicidal effect (herbicidal rate), Amaranthus viridis (Amaranthus viridis [8]) | herbicidal effect (herbicidal rate), southern crabgrass (southern crabgrass [9]) | herbicidal effect (herbicidal rate), Echinochloa crus-galli (Echinochloa crus-galli [10]) | herbicidal effect (herbicidal rate), Chenopodium album (Chenopodium album [11]) | Herbicidal rate (%) Lindernia pyxidaria [12] | Herbicidal rate (%) Monochoria vaginalis [12] | Herbicidal rate (%) Echinochloa crus-galli (Echinochloa crus-galli [13]) | Herbicidal rate (%) Scirpus juncoides (Scirpus juncoides [14])
1 | C=CCOC(=O)N(c1ccccc1Cc1c(C)n(CC(C)C)oc1=O)S(=O)(=O)C(F)(F)F [Compound 1-707] | 90% | 90% | 90% | 90% | 90% | 90% | 90% | 90% | 40% | 90% | 90% | 40% | 90% | 90% | 90% | 90%
2 | CCC(C)n1oc(=O)c(Cc2ccccc2N(C(=O)OCC(C)C)S(=O)(=O)C(F)(F)F)c1C (stereo not shown) [Compound 1-669] | 90% | 90% | 90% | 90% | 90% | 90% | 90% | 90% | 40% | 90% | 90% | 40% | 90% | 90% | 90% | 90%
3 | Cc1c(Cc2ccccc2N(C(=O)C(C)C)S(=O)(=O)C(F)(F)F)c(=O)on1CC(C)(C)C [Compound 1-333] | 90% | 90% | 90% | 90% | 90% | 90% | 90% | 90% | 40% | 90% | 90% | 40% | 90% | 90% | 90% | 90%
4 | C=CC(C)n1oc(=O)c(Cc2ccccc2N(S(=O)(=O)C(F)(F)F)S(=O)(=O)C(F)(F)F)c1C (stereo not shown) [Compound 1-986] | 60% | 80% | 100% | 60% | 40% | 70% | 90% | 90% | 60% | 90% | 90% | 40% | 90% | 80% | 90% | 90%
5 | COCCOC(=O)N(c1ccccc1Cc1c(C)n(C(C)c2ccccc2)oc1=O)S(=O)(=O)C(F)(F)F (stereo not shown) [Compound 1-736] | 90% | 90% | 90% | 90% | 90% | 90% | 90% | 90% | 40% | 90% | 90% | 40% | 90% | 90% | 90% | 90%
6 | C=CCOC(=O)N(c1ccccc1Cc1c(C)n(C(C)COC)oc1=O)S(=O)(=O)C(F)(F)F (stereo not shown) [Compound 1-708] | 90% | 90% | 90% | 90% | 90% | 90% | 90% | 90% | 40% | 90% | 90% | 40% | 90% | 90% | 90% | 90%
7 | CCCC(c1ccccc1)n1oc(=O)c(Cc2ccccc2NS(=O)(=O)C(F)(F)F)c1C (stereo not shown) [Compound 1-212] | 0% | 90% | 90% | 0% | 70% | 90% | 90% | 90% | 80% | 90% | 90% | 60% | 90% | 80% | 90% | 90%
8 | Cc1c(Cc2ccccc2N(C(=O)CC(C)C)S(=O)(=O)C(F)(F)F)c(=O)on1C(C)(C)C [Compound 1-351] | 90% | 90% | 90% | 90% | 90% | 90% | 90% | 90% | 40% | 90% | 90% | 40% | 90% | 90% | 90% | 90%
9 | Cc1c(Cc2ccccc2N(C(=O)OCC(C)C)S(=O)(=O)C(F)(F)F)c(=O)on1C(C)c1ccccc1 (stereo not shown) [Compound 1-678] | 90% | 90% | 90% | 90% | 90% | 90% | 90% | 90% | 40% | 90% | 90% | 40% | 90% | 90% | 90% | 90%
10 | COCC(C)n1oc(=O)c(Cc2ccccc2N(C(=O)C(C)C)S(=O)(=O)C(F)(F)F)c1C (stereo not shown) [Compound 1-335] | 90% | 90% | 90% | 90% | 90% | 90% | 90% | 90% | 40% | 90% | 90% | 40% | 90% | 90% | 90% | 90%
